According to US20240390408A1, “METHOD OF TREATING HEPATITIS C VIRUS IN PATIENTS” (Altesa BioSciences, Inc., priority 2023, published 2024):
Like-named read-outs stand apart in the source and are kept apart here. One block for each compound: values may come before it.

Assay: Tissue concentrations of Formula I and its metabolites in Göttingen pigs after a single oral or intravenous dose (LC-MS/MS)
Format: in vivo
Settings: for concentration at 2 h / concentration at 3 h / concentration at 12 h / concentration at 24 h: both sexes, Göttingen, pig (minipig)
Experimental: Tissue samples were collected at 3, 12, and 24 hours post-dose (hpd) for the oral dose and 2 and 12 hpd for the intravenous dose, snap-frozen in liquid nitrogen, and stored at −60 to −90° C. until shipment on dry ice for analysis by LC-MS/MS.
Animals were weighed the day prior to dosing to determine the dosing volume.
The compound of Formula I was dissolved in a PEG 400/DI water (60%/40% v/v) vehicle for oral dosing. For IV dosing the compound of Formula I was dissolved in a PEG 400/Cremophor RH 40/Saline (40%/10%/50% v/v) vehicle and passed through a sterile filter. […] Animals were euthanized by euthanasia solution administration under sedation, if necessary (e.g., acepromazine and or/Telazol®), followed by a Testing Facility SOP approved method to ensure death (e.g., exsanguination). Tissues were collected from two animals per sex per timepoint. Tissue samples, including the brain, heart, kidney, liver, lung, spleen, pancreas, bone marrow, duodenum, jejunum, and colon, were collected in duplicate (approximately 50±20 mg each) and placed into two separate reinforced homogenization tubes per organ (one tissue sample per tube). The exact weight (in milligrams) of each sample was recorded. Tissues samples were flash frozen in liquid nitrogen and stored at −60 to −90° C. until shipment on dry ice for analysis by LC-MS/MS.
Mobile phase A consisted of 50 mM ammonium bicarbonate buffer in HPLC grade water pH 9.8 and mobile phase B consisted of pure acetonitrile. […] Mass spectrometry analysis was performed on a QTrap 7500 Mass Spectrometer (Sciex, Framingham, MA, USA) using negative mode electrospray ionization (ESI) in multiple reaction monitoring (MRM) mode. Data analysis was performed using SCIEX OS Software (Sciex, Framingham, MA, USA).
Tissue samples were collected at 3, 12, and 24 hours post-dose for the oral dose and 2 and 12 hour post-dose for the intravenous dose.

[1] = brain, single intravenous bolus of Formula I 25 mg/kg, 2 hpd, read-out: Tissue concentration, brain
[2] = brain, single oral dose of Formula I 125 mg/kg, 3 hpd, read-out: Tissue concentration, brain
[3] = heart, single intravenous bolus of Formula I 25 mg/kg, 2 hpd, read-out: Tissue concentration, heart
[4] = heart, single intravenous bolus of Formula I 25 mg/kg, 12 hpd, read-out: Tissue concentration, heart
[5] = heart, single oral dose of Formula I 125 mg/kg, 3 hpd, read-out: Tissue concentration, heart
[6] = heart, single oral dose of Formula I 125 mg/kg, 12 hpd, read-out: Tissue concentration, heart
[7] = kidney, single intravenous bolus of Formula I 25 mg/kg, 2 hpd, read-out: Tissue concentration, kidney
[8] = kidney, single intravenous bolus of Formula I 25 mg/kg, 12 hpd, read-out: Tissue concentration, kidney
[9] = kidney, single oral dose of Formula I 125 mg/kg, 3 hpd, read-out: Tissue concentration, kidney
[10] = kidney, single oral dose of Formula I 125 mg/kg, 12 hpd, read-out: Tissue concentration, kidney
[11] = kidney, single oral dose of Formula I 125 mg/kg, 24 hpd, read-out: Tissue concentration, kidney
[12] = liver, single intravenous bolus of Formula I 25 mg/kg, 2 hpd, read-out: Tissue concentration, liver
[13] = liver, single intravenous bolus of Formula I 25 mg/kg, 12 hpd, read-out: Tissue concentration, liver
[14] = liver, single oral dose of Formula I 125 mg/kg, 3 hpd, read-out: Tissue concentration in Göttingen pig liver (Table 7)
[15] = liver, single oral dose of Formula I 125 mg/kg, 3 hpd, read-out: Tissue concentration, liver
[16] = liver, single oral dose of Formula I 125 mg/kg, 12 hpd, read-out: Tissue concentration in Göttingen pig liver (Table 7)
[17] = liver, single oral dose of Formula I 125 mg/kg, 12 hpd, read-out: Tissue concentration, liver
[18] = liver, single oral dose of Formula I 125 mg/kg, 24 hpd, read-out: Tissue concentration in Göttingen pig liver (Table 7)
[19] = liver, single oral dose of Formula I 125 mg/kg, 24 hpd, read-out: Tissue concentration, liver
[20] = lung, single intravenous bolus of Formula I 25 mg/kg, 2 hpd, read-out: Tissue concentration, lung
[21] = lung, single intravenous bolus of Formula I 25 mg/kg, 12 hpd, read-out: Tissue concentration, lung
[22] = lung, single oral dose of Formula I 125 mg/kg, 3 hpd, read-out: Tissue concentration, lung
[23] = lung, single oral dose of Formula I 125 mg/kg, 12 hpd, read-out: Tissue concentration, lung
[24] = lung, single oral dose of Formula I 125 mg/kg, 24 hpd, read-out: Tissue concentration, lung
[25] = spleen, single intravenous bolus of Formula I 25 mg/kg, 2 hpd, read-out: Tissue concentration, spleen
[26] = spleen, single intravenous bolus of Formula I 25 mg/kg, 12 hpd, read-out: Tissue concentration, spleen
[27] = spleen, single oral dose of Formula I 125 mg/kg, 3 hpd, read-out: Tissue concentration, spleen
[28] = spleen, single oral dose of Formula I 125 mg/kg, 12 hpd, read-out: Tissue concentration, spleen
[29] = spleen, single oral dose of Formula I 125 mg/kg, 24 hpd, read-out: Tissue concentration, spleen
[30] = 2-3 hours after IV 25 mg/kg or PO 125 mg/kg dosing

Exposure in the lung and spleen, fold lower than liver and kidneys (after PO dosing with Formula I): about 10 fold
concentration at 2 h [1]: 4.9 ± 9.8 ng/g
concentration at 3 h [2]: 27 ± 23.4 ng/g
concentration at 2 h [3]: 292 ± 139 ng/g
concentration at 12 h [4]: 7.85 ± 9.5 ng/g
concentration at 3 h [5]: 780 ± 375 ng/g
concentration at 12 h [6]: 3.33 ± 6.65 ng/g
concentration at 2 h [7]: 6920 ± 3290 ng/g
concentration at 12 h [8]: 39.3 ± 32.1 ng/g
concentration at 3 h [9]: 10300 ± 2300 ng/g
concentration at 12 h [10]: 180 ± 172 ng/g
concentration at 24 h [11]: 30 ± 12.8 ng/g
concentration at 2 h [12]: 694 ± 385 ng/g
concentration at 12 h [13]: 17.9 ± 16.4 ng/g
concentration at 3 h [14]: 29.2 ± 12.2 µM
concentration at 3 h [15]: 12400 ± 5150 ng/g
concentration at 12 h [16]: 0.475 ± 0.727 µM
concentration at 12 h [17]: 202 ± 309 ng/g
concentration at 24 h [18]: 0.107 ± 0.0606 µM
concentration at 24 h [19]: 45.6 ± 25.8 ng/g
concentration at 2 h [20]: 786 ± 134 ng/g
concentration at 12 h [21]: 31.8 ± 5.52 ng/g
concentration at 3 h [22]: 1630 ± 667 ng/g
concentration at 12 h [23]: 16.5 ± 12.8 ng/g
concentration at 24 h [24]: 2.25 ± 4.51 ng/g
concentration at 2 h [25]: 530 ± 284 ng/g
concentration at 12 h [26]: 24.8 ± 7.34 ng/g
concentration at 3 h [27]: 1390 ± 301 ng/g
concentration at 12 h [28]: 11.9 ± 9.24 ng/g
concentration at 24 h [29]: 2.27 ± 4.53 ng/g
Tissue concentration, brain (brain, single intravenous bolus of Formula I 25 mg/kg, 2 hpd): 4.90 ± 9.80 ng/g
Tissue concentration, brain (brain, single intravenous bolus of Formula I 25 mg/kg, 12 hpd): not observable and BQL
Tissue concentration, brain (brain, single oral dose of Formula I 125 mg/kg, 3 hpd): 27.0 ± 23.4 ng/g
Tissue concentration, brain (brain, single oral dose of Formula I 125 mg/kg, 12 hpd): BQL
Tissue concentration, brain (brain, single oral dose of Formula I 125 mg/kg, 24 hpd): BQL
Tissue concentration, heart (heart, single intravenous bolus of Formula I 25 mg/kg, 12 hpd): 7.85 ± 9.50 ng/g
Tissue concentration, heart (heart, single oral dose of Formula I 125 mg/kg, 3 hpd): 780 ± 375 ng/g
Tissue concentration, heart (heart, single oral dose of Formula I 125 mg/kg, 24 hpd): BQL
Tissue concentration, kidney (kidney, single intravenous bolus of Formula I 25 mg/kg, 2 hpd): 6920 ± 3290 ng/g
Tissue concentration, kidney (kidney, single intravenous bolus of Formula I 25 mg/kg, 12 hpd): 39.3 ± 32.1 ng/g
Tissue concentration, kidney (kidney, single oral dose of Formula I 125 mg/kg, 3 hpd): 10300 ± 2300 ng/g
Tissue concentration, liver (liver, single oral dose of Formula I 125 mg/kg, 3 hpd): 12400 ± 5150 ng/g
Tissue concentration, liver (liver, single oral dose of Formula I 125 mg/kg, 24 hpd): 45.6 ± 25.8 ng/g
Tissue concentration, lung (lung, single oral dose of Formula I 125 mg/kg, 3 hpd): 1630 ± 667 ng/g
Tissue concentration, spleen (spleen, single oral dose of Formula I 125 mg/kg, 3 hpd): 1390 ± 301 ng/g
SMILES: C[C@H](NP(=O)(O)OC[C@H]1O[C@@H](n2ccc(=O)[nH]c2=S)C(C)(O)C1O)C(=O)O (stereo in doubt) [Formula II]

Brain level, additional fold lower than heart, lung and spleen [30]: approximately 10 fold
Kidney and liver levels relative to heart, lung and spleen (fold higher) [30]: approximately 10 fold
Additional decrease of levels in all organs (24 hpd after oral dose, all organs): 2-3 fold
Decrease of levels in all organs (12 hours post oral dose, all organs): 4-6 fold
concentration at 2 h [1]: 140 ± 56.7 ng/g
concentration at 12 h (brain, single intravenous bolus of Formula I 25 mg/kg, 12 hpd, read-out: Tissue concentration, brain): 6.4 ± 12.8 ng/g
concentration at 3 h [2]: 192 ± 77.9 ng/g
concentration at 12 h (brain, single oral dose of Formula I 125 mg/kg, 12 hpd, read-out: Tissue concentration, brain): 111 ± 38.6 ng/g
concentration at 24 h (brain, single oral dose of Formula I 125 mg/kg, 24 hpd, read-out: Tissue concentration, brain): 37.9 ± 9.15 ng/g
concentration at 2 h [3]: 1990 ± 195 ng/g
concentration at 12 h [4]: 57.3 ± 23.3 ng/g
concentration at 3 h [5]: 3370 ± 645 ng/g
concentration at 12 h [6]: 533 ± 213 ng/g
concentration at 24 h (heart, single oral dose of Formula I 125 mg/kg, 24 hpd, read-out: Tissue concentration, heart): 240 ± 27.7 ng/g
concentration at 2 h [7]: 25400 ± 5560 ng/g
concentration at 12 h [8]: 701 ± 48.7 ng/g
concentration at 3 h [9]: 29400 ± 2170 ng/g
concentration at 12 h [10]: 7420 ± 1440 ng/g
concentration at 24 h [11]: 2740 ± 503 ng/g
concentration at 2 h [12]: 7960 ± 1530 ng/g
concentration at 12 h [13]: 201 ± 126 ng/g
concentration at 3 h [14]: 66.3 ± 23.7 µM
concentration at 3 h [15]: 18200 ± 6500 ng/g
concentration at 12 h [16]: 9.46 ± 5.56 µM
concentration at 12 h [17]: 2600 ± 1530 ng/g
concentration at 24 h [18]: 4.08 ± 1.84 µM
concentration at 24 h [19]: 1120 ± 505 ng/g
concentration at 2 h [20]: 2330 ± 130 ng/g
concentration at 12 h [21]: 93.9 ± 18.8 ng/g
concentration at 3 h [22]: 3580 ± 1060 ng/g
concentration at 12 h [23]: 536 ± 101 ng/g
concentration at 24 h [24]: 242 ± 85.7 ng/g
concentration at 2 h [25]: 1620 ± 181 ng/g
concentration at 12 h [26]: 49.2 ± 9.7 ng/g
concentration at 3 h [27]: 3010 ± 433 ng/g
concentration at 12 h [28]: 539 ± 195 ng/g
concentration at 24 h [29]: 292 ± 139 ng/g
12 hpd levels after IV dosing, fold lower than corresponding levels after PO dosing (each organ, 12 hpd, IV 25 mg/kg vs PO 125 mg/kg): approximately 10 fold
SMILES: C[C@@]1(O)[C@H](O)[C@@H](CO)O[C@H]1n1ccc(=O)[nH]c1=S [Formula VI]
